# Results reported in ChEMBL document CHEMBL5604062, “ASAP - ZIKV NS2B-NS3 protease fluorescence dose response” (2024).
# pIC50: −log10 of the molar value. Several values for one entry are separate records, joined by “and”; a condition that tells them apart may be missing. Identical values can stand only once.
# Target: Nonstructural protein 3 (Zika virus, UniProt A0A024AXB9)
# Experiment: Functional biochemical assay to identify treatments for viral infectious disease that targets Zika NS2B-NS3 protease. Utilizing a direct enzyme activity measurement method, reading the fluorescence intensity is used to characterize the relative potency of inhibitors as IC50.
# Set-up: species or system PRVABC59
# Nonstructural protein 3, sequence (A0A024AXB9 whole entry): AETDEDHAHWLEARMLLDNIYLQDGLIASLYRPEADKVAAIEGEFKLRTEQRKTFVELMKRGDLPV
row,SMILES,pIC50
1,c1ccc(COc2cccc3[nH]cc(CN4CCC(c5cscn5)CC4)c23)cc1,< 4.00
2,NCc1cccc(NC(=O)[C@@H](NC(=O)OCc2ccccc2)c2cccc(OC[C@H]3CCCO3)c2)c1,< 4.00
3,NCc1cccc([C@@H]2C[C@H]2c2cc(Cl)cc(NC(=O)OCc3ccccc3)c2)c1,4.74 and 4.95
4,Cn1cc(N2CCN(Cc3c[nH]c4ccccc34)CC2)cn1,< 4.00
5,O=c1[nH]c2cccc(N3CCN(Cc4c[nH]c5ccccc45)CC3)c2[nH]1,< 4.00
6,FC(F)(F)Oc1cc(Cl)cc2c(CN3CCC(c4cscn4)CC3)c[nH]c12,< 4.00
7,CC(=O)N[C@H](C(=O)N[C@H]1C(=O)O[C@H]1C)c1ccc(OCc2ccccc2)cc1,< 4.00
8,Cc1ncc(C(=O)Nc2cccc(CN)c2)cc1NC(=O)OCc1ccccc1,< 4.00
9,NCc1cccc(NC(=O)c2cc(NC(=O)OCc3ccccc3)cc3c2OCCO3)c1,4.05
10,O=C(Nc1cc(Cl)cc(C(=O)Nc2ncc3n2CCNC3)c1)OCc1ccccc1,< 4.00
11,NCc1cccc(NC(=O)[C@@H]2[C@@H]3CCCCC[C@@H]3[C@@H]2NC(=O)OCc2ccccc2)c1,4.26
12,CCOCC(=O)N1CCC([C@H](NC(=O)OCc2ccccc2)C(=O)Nc2cccc(CN)c2)CC1,< 4.00
13,NC(=O)c1cnccc1N1CCN(Cc2c[nH]c3ccccc23)CC1,< 4.00
14,O=C1COc2c(cccc2N2CCN(Cc3c[nH]c4ccccc34)CC2)N1,4.16
15,c1ccc(OC2CCN(Cc3c[nH]c4ccccc34)CC2)cc1,< 4.00
16,NCc1cccc(NC(=O)[C@@H](NC(=O)OCc2ccccc2)c2cccc(OCC3CCC3)c2)c1,4.56
17,CN(C)Cc1nnc(NC(=O)[C@@H](NC(=O)OCc2ccccc2)c2ccc(OCc3ccccc3)cc2)s1,< 4.00
18,NCc1cccc(NC(=O)c2cc(NC(=O)OCc3ccccc3)cc(C(N)=O)c2)c1,< 4.00
19,COCCOc1ccc(Cl)cc1C(=O)Nc1cccc(CN)c1,4.11
20,CN(C)Cc1csc(NC(=O)[C@@H](NC(=O)OCc2ccccc2)c2ccc(OCc3ccccc3)cc2)n1,< 4.00
21,Cc1nc(COc2ccc([C@@H](NC(=O)OCc3ccccc3)C(=O)Nc3cccc(CN)c3)cc2)cs1,< 4.00
22,c1ccc2c(CN3CCN(c4ccncc4)CC3)c[nH]c2c1,4.01
23,O=C(Nc1cc(Cl)cc(C(=O)Nc2nc3c(s2)CCNC3)c1)OCc1ccccc1,4.27
24,COc1c(C)cc(C(=O)Nc2cccc(CN)c2)cc1NC(=O)OCc1ccccc1,< 4.00
25,NCc1cccc(NC(=O)Cc2cc(Cl)cc(NC(=O)OCc3ccccc3)c2)c1,4.34

row,SMILES,pIC50
1,COc1ccc(CN(C)C)cc1NC(=O)[C@@H](NC(=O)OCc1ccccc1)c1ccc(OCc2ccccc2)cc1,< 4.00
2,CC(C)(C)OC(=O)Nc1cccc2[nH]cc(CN3CCC(c4cscn4)CC3)c12,< 4.00
3,NCc1nc(CNC(=O)c2cc(Cl)cc(NC(=O)OCc3ccccc3)c2)cs1,< 4.00
4,NCc1cccc(CS(=O)(=O)c2cc(Cl)cc(NC(=O)OCc3ccccc3)c2)c1,< 4.00
5,Cc1c(NC(=O)OCc2ccccc2)cc(C(F)(F)F)cc1C(=O)Nc1cccc(CN)c1,4.22
6,c1ccc(COc2ccc3[nH]cc(CN4CCC(c5cscn5)CC4)c3c2)cc1,< 4.00
7,Cc1nccn1CCOc1cccc([C@H](NC(=O)OCc2ccccc2)C(=O)Nc2cccc(CN)c2)c1,< 4.00
8,NCc1cccc(NC(=O)[C@H](NC(=O)OCc2ccccc2)c2cccc(OCc3ccncc3)c2)c1,< 4.00
9,NCc1cccc(NC(=O)[C@H](NC(=O)OCc2ccccc2)C2CCN(Cc3ccccc3)CC2)c1,< 4.00
10,NCc1cccc(NC(=O)[C@@H](NC(=O)OCc2ccccc2)c2ccc(OC[C@H]3CCCCO3)cc2)c1,< 4.00
11,O=C(Nc1cc(Cl)cc(C(=O)Nc2n[nH]c3c2CNC3)c1)OCc1ccccc1,4.40
12,CCN1CC[C@H](COc2cccc([C@H](NC(=O)OCc3ccccc3)C(=O)Nc3cccc(CN)c3)c2)C1,< 4.00
13,Clc1ccc(-c2cc(CN3CCC(c4cscn4)CC3)[nH]n2)cc1,< 4.00
14,CC(C)(C)c1ccc2[nH]cc(CN3CCC(c4cscn4)CC3)c2c1,< 4.00
15,NCc1cccc(NC(=O)c2cc(Cl)cc(F)c2F)c1,4.23
16,Cn1cc(C(=O)N2CCC([C@H](NC(=O)OCc3ccccc3)C(=O)Nc3cccc(CN)c3)CC2)cn1,< 4.00
17,O=C(Nc1cc(Cl)cc(C(=O)Nc2n[nH]c3c2CNC32CC2)c1)OCc1ccccc1,< 4.00
18,CN1CCC[C@H]1COc1cccc([C@@H](NC(=O)OCc2ccccc2)C(=O)Nc2cccc(CN)c2)c1,< 4.00
19,NCc1cccc(NC(=O)c2cc(NC(=O)OCc3ccccc3)cc(C(F)(F)F)c2F)c1,< 4.00
20,CCc1cccc2c(CN3CCC(c4cscn4)CC3)c[nH]c12,< 4.00
21,Cc1cc(NC(=O)OCc2ccccc2)cc(C(=O)Nc2cccc(CN)c2)c1C,< 4.00
22,COc1cc(Br)ccc1[C@@H](NC(=O)OCc1ccccc1)C(=O)Nc1cccc(CN)c1,4.16
23,CN(C)Cc1ccc(N2CCN(Cc3c[nH]c4ccccc34)CC2)nc1,< 4.00
24,NCc1cccc(NC(=O)c2cc(Cl)cc(C3CC3)c2)c1,5.08
25,CC(C)(C)c1cc(CN2CCC(c3cscn3)CC2)n[nH]1,< 4.00

row,SMILES,pIC50
1,NCc1cccc(NC(=O)c2cc3c(c(NC(=O)OCc4ccccc4)c2)OCC3)c1,4.11
2,CN(C)Cc1cc(NC(=O)[C@@H](NC(=O)OCc2ccccc2)c2ccc(OCc3ccccc3)cc2)ccc1Cl,< 4.00
3,Cc1ccc(NC(=O)OC(C)(C)C)c2[nH]cc(CN3CCC(c4cscn4)CC3)c12,< 4.00
4,O=C(Nc1cc(Cl)cc(C(=O)Nc2cnc3n2CCNC3)c1)OCc1ccccc1,< 4.00
5,NCc1cccc(NC(=O)[C@@H]2CCC[C@@H](NC(=O)OCc3ccccc3)C2)c1,< 4.00
6,c1ccc(CC2CCN(Cc3c[nH]c4ccccc34)CC2)cc1,4.05
7,O=C(Nc1cc(Cl)cc(C(=O)NCc2n[nH]c3c2CNCC3)c1)OCc1ccccc1,< 4.00
8,CC(C)N1C(=O)C[C@H](C(=O)Nc2cccc(CN)c2)[C@H]1c1ccc(Cl)c(F)c1,< 4.00
9,O=C(N[C@@H](C(=O)Nc1n[nH]c2c1CNC21CC1)c1ccc(OCc2ccccc2)cc1)OCc1ccccc1,< 4.00
10,c1cnc2[nH]cc(C3CCN(Cc4c[nH]c5ccncc45)CC3)c2c1,4.13
11,Cn1nc(NC(=O)[C@@H](NC(=O)OCc2ccccc2)c2ccc(OCc3ccccc3)cc2)c2c1CNC2,< 4.00
12,O=C(Nc1cc(Cl)cc(C(=O)Nc2cc3n(n2)CCNC3)c1)OCc1ccccc1,< 4.00
13,Clc1cc(Cl)c2c(CN3CCC(c4cscn4)CC3)c[nH]c2c1,4.13
14,CN(C)Cc1cccc(NC(=O)[C@H](NC(=O)OCc2ccccc2)c2ccc(OCc3ccccc3)cc2)c1,< 4.00
15,NCc1cccc(NC(=O)c2cc(Cl)cc(CNC(=O)OCc3ccccc3)c2)c1,4.66
16,NCc1cccc(NC(=O)[C@H](NC(=O)OCc2ccccc2)c2cccc(OC[C@H]3COCCO3)c2)c1,< 4.00
17,NCc1cccc(C(=O)Nc2cc(Cl)cc(NC(=O)OCc3ccccc3)c2)c1,4.78
18,c1ccc2c(CN3CC(c4cscn4)C3)c[nH]c2c1,< 4.00
19,c1cc(-c2cc(CN3CCC(c4cscn4)CC3)n[nH]2)ccn1,< 4.00
20,NCc1cccc(NC(=O)[C@@H](NC(=O)OCc2ccccc2)c2ccc(Br)c(Cl)c2)c1,5.02 and 5.06
21,O=C(N[C@@H](C(=O)Nc1nc2c(s1)CNC2)c1ccc(OCc2ccccc2)cc1)OCc1ccccc1,< 4.00
22,C1=C(c2cccnc2)CN(Cc2c[nH]c3ccccc23)CC1,< 4.00
23,O=C(Nc1cc(Cl)cc(C(=O)Nc2nc3c(s2)CNC3)c1)OCc1ccccc1,4.07
24,C#Cc1cc(NC(=O)OCc2ccccc2)cc(C(=O)Nc2cccc(CN)c2)c1,4.44
25,c1nc(C2CCN(Cc3cc(C4CCOCC4)[nH]n3)CC2)cs1,< 4.00

row,SMILES,pIC50
1,COc1cc(NC(=O)OCc2ccccc2)cc(C(=O)Nc2cccc(CN)c2)c1OC,< 4.00
2,N#Cc1cccc2[nH]cc(CN3CCC(c4cscn4)CC3)c12,< 4.00
3,O=C1O[C@H]2CCN(Cc3ccc(OCc4ccccc4)cc3)C[C@H]12,< 4.00
4,O=C1Nc2ncccc2C[C@H]1NCc1n[nH]c2ccccc12,< 4.00
5,Cc1[nH]c2ccccc2c1CN1CCC(c2c[nH]c3ncccc23)CC1,5.24
6,c1cnc2[nH]cc(C3CCN(Cc4c[nH]c5cnccc45)CC3)c2c1,< 4.00
7,O=C(N[C@@H](C(=O)Nc1ncc([C@H]2CCCN2)s1)c1ccc(OCc2ccccc2)cc1)OCc1ccccc1,< 4.00
8,c1cncc(-c2cc(CN3CCC(c4cscn4)CC3)n[nH]2)c1,< 4.00
9,NCc1cccc(S(=O)(=O)Cc2cc(Cl)cc(NC(=O)OCc3ccccc3)c2)c1,4.03
10,Cc1ncc(NC(=O)OCc2ccccc2)cc1C(=O)Nc1cccc(CN)c1,< 4.00
11,NCc1cccc(NC(=O)c2cc(N)cc(NC(=O)OCc3ccccc3)c2)c1,< 4.00
12,CN1CCc2nc(NC(=O)[C@@H](NC(=O)OCc3ccccc3)c3ccc(OCc4ccccc4)cc3)sc2C1,< 4.00
13,CCN1CC[C@@H](COc2ccc([C@@H](NC(=O)OCc3ccccc3)C(=O)Nc3cccc(CN)c3)cc2)C1,< 4.00
14,NCc1cn(CCNC(=O)c2cc(Cl)cc(NC(=O)OCc3ccccc3)c2)nn1,< 4.00
15,Cn1nc(NC(=O)c2cc(Cl)cc(NC(=O)OCc3ccccc3)c2)c2c1CNC2,< 4.00
16,NCc1cccc(NC(=O)c2cc(Cl)ccc2NS(=O)(=O)c2ccccc2)c1,< 4.00
17,c1ccc([C@H](NCc2c[nH]c3ccccc23)c2cccnc2)cc1,< 4.00
18,Cc1ocnc1COc1cccc([C@H](NC(=O)OCc2ccccc2)C(=O)Nc2cccc(CN)c2)c1,< 4.00
19,CC[C@@H](NCc1c[nH]c2ccccc12)c1cccnc1,< 4.00
20,NC[C@@H]1CN(c2cc(N3CC[C@H](N)C3)cc3c2COB3O)C(=O)O1,4.14
21,O=C(O)c1cc(Cl)ccc1NS(=O)(=O)c1ccc(Nc2ccccc2F)nc1,4.33
22,N#Cc1cccc(N2CCN(Cc3c[nH]c4ccccc34)CC2)c1,4.07
23,NCc1cccc(NC(=O)C[C@@H](NC(=O)OCc2ccccc2)c2ccc(Cl)c(Br)c2)c1,4.84 and 4.89
24,NCc1cccc(NC(=O)c2cc(Cl)cc3c2CCC3)c1,5.22
25,c1ccc([C@@H]2C[C@H]3C[C@@H]2C[C@H]3NCc2n[nH]c3ccccc23)cc1,< 4.00
